Literature values as cited in US7989600B2, “Macrolide compounds containing biotin and photo-affinity group for macrolide target identification” (GlaxoSmithKline Istrazivacki Centar Zagreb D.O.O., priority 2005, dated 2011).

Test system: α1-acid glycoprotein from serum
Details: dialysis in combination HPLC methods; Castearena et al., J Chemother. 1995

CC[C@H]1OC(=O)[C@H](C)[C@@H](O[C@H]2C[C@@](C)(OC)[C@@H](O)[C@H](C)O2)[C@H](C)[C@@H](O[C@@H]2O[C@H](C)C[C@H](N(C)C)[C@H]2O)[C@](C)(O)C[C@@H](C)CN(C)[C@H](C)[C@@H](O)[C@]1(C)O [azithromycin]
binding to α1-acid glycoprotein from serum: specifically binds
